#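 Test compounds were applied to cells in 96-well plates for 48 hours at 5 doses. GI50 = concentration required for 50% inhibition of growth. TGI: concentration producing complete growth inhibition.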
# Assays:
# Experiment in all cases: DTP human tumour cell line panel, 48 h
# [1] = test system: HL-60(TB) leukemia
# [2] = test system: K-562 leukemia
# [3] = test system: DU-145 prostate
# [4] = test system: SF-539 CNS
# [5] = test system: A498 renal
# [6] = test system: NCI-H23 lung
# [7] = test system: HT29 colon
# [8] = test system: NCI-H522 lung
# [9] = test system: SN12C renal
# [10] = test system: MALME-3M melanoma
Compound,GI50 [1] [µM],TGI [1] [µM],GI50 [2] [µM],TGI [2] [µM],GI50 [3] [µM],TGI [3] [µM],GI50 [4] [µM],TGI [4] [µM],GI50 [5] [µM],TGI [5] [µM],GI50 [6] [µM],TGI [6] [µM],GI50 [7] [µM],TGI [7] [µM],GI50 [8] [µM],TGI [8] [µM],GI50 [9] [µM],TGI [9] [µM],GI50 [10] [µM],TGI [10] [µM]
CC(C)c1nc(N(C)S(C)(=O)=O)nc(-c2ccc(F)cc2)c1/C=C/[C@@H](O)C[C@@H](O)CC(=O)O,> 100,> 100,> 100,> 100,> 100,> 100,> 100,> 100,3.57,20.8,> 100,> 100,> 100,> 100,21.5,> 100,56.2,> 100,> 100,> 100
COc1cccc(CN(C)c2ccc(CO)c(Cl)c2)c1,26,> 87.1,7.56,> 100,37.1,> 100,48,> 100,0.0311,0.154,18.6,> 100,5.03,> 100,22,> 74.3,24.7,> 100,25.9,> 89.7
CCN(Cc1cc(F)ccc1F)c1ccc(CO)c(Cl)c1,5.62,34.7,0.617,20.9,15.5,36.7,15.2,30.4,0.0298,0.145,11.4,33.1,4.1,17.7,12.2,29,11.8,25.6,13.3,27.2
Cc1cc(Cl)ccc1OCC(=O)Nc1nc(N)nc(N)n1,,> 100,,> 100,,> 100,,> 100,,> 100,,> 100,,> 100,,> 100,,> 100,,> 100
COC(=O)c1cc2c(cc1Cl)SC1=NN(C)S(=O)N1S2(=O)=O (stereo not given),> 100,> 100,> 100,> 100,> 100,> 100,> 100,> 100,75,> 100,> 100,> 100,> 100,> 100,> 100,> 100,> 100,> 100,> 100,> 100
Cc1cc(C)c2c(n1)sc1c(N)ncnc12,> 25,> 25,> 25,> 25,> 25,> 25,> 24.1,> 25,4.9,> 25,> 25,> 25,16.2,> 25,> 25,> 25,> 22.3,> 25,> 25,> 25
Cc1ccc2nc(-c3ccc(OCC(=O)N=Nc4c(O)[nH]c5ccccc45)cc3)[nH]c2c1,9.8,35.9,2.43,9.44,3.29,13.5,3.51,13.9,> 100,> 100,3.53,14.5,2.43,6.27,2,5.09,2.42,7.73,2.1,4.6
O=C(/C=C/c1ccc(O)c(O)c1)NCc1c[nH]c2ccccc12,70,> 100,68.1,> 100,78.3,> 100,38.9,> 100,32.4,> 100,85.8,> 100,47.2,> 100,44.9,> 100,28.4,84.7,29.2,> 100
CN(Cc1ccc(C(F)(F)F)cc1)CC(O)C(=O)Nc1ccc(Cl)cc1 (stereo not given),1.37,3.09,1.18,2.78,1.38,2.77,1.73,3.24,1.38,2.79,1.32,2.69,1.39,2.77,1.5,3.06,1.49,2.88,1.37,2.81
O=[N+]([O-])c1nccn1CC(O)CN1CCCCC1 (stereo not given),,> 100,,> 100,,> 100,,> 100,,> 100,,> 100,,> 100,,> 100,,> 100,,> 100
CC1CN(S(=O)(=O)c2oc(-c3ccc(Cl)cc3)nc2C#N)CC(C)O1 (stereo not given),2.09,5.84,2.07,> 100,1.92,4.1,1.78,3.28,14.4,27.5,3.99,15.9,2.06,4.11,0.945,2.79,1.7,3.23,1.57,2.96
CCCCCCCCOC(=O)c1c(C)[nH]c(/C=C2\N=C(c3ccc[nH]3)C=C2OC)c1C,0.0688,4.25,0.0212,14.2,0.0427,9.87,0.0529,2.62,0.19,2,0.0965,2.2,< 0.0179,1.43,0.0316,4.02,0.0601,3.55,0.641,2.67

# From PubChem BioAssay (NCI)
